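Results reflect a 48-hour exposure of cells in 96-well plates to compound at five concentrations. TGI marks complete inhibition of growth.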
Key:
Assay in all cases: NCI anticancer screen, dose series, 48 h
SF-295 CNS = test system: SF-295 CNS
HCT-116 colon = test system: HCT-116 colon
IGROV1 ovarian = test system: IGROV1 ovarian
NCI-H460 lung = test system: NCI-H460 lung
BT-549 breast = test system: BT-549 breast
OVCAR-5 ovarian = test system: OVCAR-5 ovarian
MDA-MB-435 = test system: MDA-MB-435
HT29 colon = test system: HT29 colon
HL-60(TB) leukemia = test system: HL-60(TB) leukemia
HCC-2998 colon = test system: HCC-2998 colon
SK-MEL-2 melanoma = test system: SK-MEL-2 melanoma
CCRF-CEM leukemia = test system: CCRF-CEM leukemia
OVCAR-3 ovarian = test system: OVCAR-3 ovarian
NCI-H226 lung = test system: NCI-H226 lung
CAKI-1 renal = test system: CAKI-1 renal
HOP-62 NSCLC = test system: HOP-62 NSCLC
HCT-15 colon = test system: HCT-15 colon
MALME-3M melanoma = test system: MALME-3M melanoma
A549 NSCLC = test system: A549 NSCLC
SK-MEL-28 melanoma = test system: SK-MEL-28 melanoma
PC-3 prostate = test system: PC-3 prostate
EKVX NSCLC = test system: EKVX NSCLC
SK-MEL-5 melanoma = test system: SK-MEL-5 melanoma
MDA-N = test system: MDA-N
NCI/ADR-RES ovarian = test system: NCI/ADR-RES ovarian
T-47D breast = test system: T-47D breast
UACC-257 melanoma = test system: UACC-257 melanoma
SW-620 colon = test system: SW-620 colon
SN12C renal = test system: SN12C renal
U251 CNS = test system: U251 CNS
DU-145 prostate = test system: DU-145 prostate
NCI-H23 lung = test system: NCI-H23 lung
RXF 393 renal = test system: RXF 393 renal
SF-268 CNS = test system: SF-268 CNS
UO-31 renal = test system: UO-31 renal
OVCAR-4 ovarian = test system: OVCAR-4 ovarian
MOLT-4 leukemia = test system: MOLT-4 leukemia
COLO 205 colon = test system: COLO 205 colon
KM12 colon = test system: KM12 colon
786-0 renal = test system: 786-0 renal
SR leukemia = test system: SR leukemia
SNB-75 CNS = test system: SNB-75 CNS
OVCAR-8 ovarian = test system: OVCAR-8 ovarian
MCF7 breast = test system: MCF7 breast
UACC-62 melanoma = test system: UACC-62 melanoma
TK-10 renal = test system: TK-10 renal
NCI-H522 lung = test system: NCI-H522 lung
A498 renal = test system: A498 renal
LOX IMVI melanoma = test system: LOX IMVI melanoma
MDA-MB-231 breast = test system: MDA-MB-231 breast
SNB-19 CNS = test system: SNB-19 CNS
ACHN renal = test system: ACHN renal
K-562 leukemia = test system: K-562 leukemia
SF-539 CNS = test system: SF-539 CNS
M14 melanoma = test system: M14 melanoma
RPMI-8226 leukemia = test system: RPMI-8226 leukemia
SK-OV-3 ovarian = test system: SK-OV-3 ovarian
HOP-92 NSCLC = test system: HOP-92 NSCLC

Structure (SMILES): C=CCN1CC2CN=NC2(C#N)C1 (centres undefined)
- TGI (SF-295 CNS): > 100 µM
- TGI (HCT-116 colon): > 100 µM
- TGI (IGROV1 ovarian): > 100 µM
- TGI (NCI-H460 lung): > 100 µM
- TGI (BT-549 breast): > 100 µM
- TGI (OVCAR-5 ovarian): > 100 µM
- TGI (MDA-MB-435): > 100 µM
- TGI (HT29 colon): > 100 µM
- TGI (HL-60(TB) leukemia): > 100 µM
- TGI (HCC-2998 colon): > 100 µM
- TGI (SK-MEL-2 melanoma): > 100 µM
- TGI (CCRF-CEM leukemia): > 100 µM
- TGI (OVCAR-3 ovarian): > 100 µM
- TGI (NCI-H226 lung): > 100 µM
- TGI (CAKI-1 renal): > 100 µM
- TGI (HOP-62 NSCLC): > 100 µM
- TGI (HCT-15 colon): > 100 µM
- TGI (MALME-3M melanoma): > 100 µM
- TGI (A549 NSCLC): > 100 µM
- TGI (SK-MEL-28 melanoma): > 100 µM
- TGI (PC-3 prostate): > 100 µM
- TGI (EKVX NSCLC): > 100 µM
- TGI (SK-MEL-5 melanoma): > 100 µM
- TGI (MDA-N): > 100 µM
- TGI (NCI/ADR-RES ovarian): > 100 µM
- TGI (T-47D breast): > 100 µM
- TGI (UACC-257 melanoma): > 100 µM
- TGI (SW-620 colon): > 100 µM
- TGI (SN12C renal): > 100 µM
- TGI (U251 CNS): > 100 µM
- TGI (DU-145 prostate): > 100 µM
- TGI (NCI-H23 lung): > 100 µM
- TGI (RXF 393 renal): > 100 µM
- TGI (SF-268 CNS): > 100 µM
- TGI (UO-31 renal): > 100 µM
- TGI (OVCAR-4 ovarian): > 100 µM
- TGI (MOLT-4 leukemia): > 100 µM
- TGI (COLO 205 colon): > 100 µM
- TGI (KM12 colon): > 100 µM
- TGI (786-0 renal): > 100 µM
- TGI (SR leukemia): > 100 µM
- TGI (SNB-75 CNS): > 100 µM
- TGI (OVCAR-8 ovarian): > 100 µM
- TGI (MCF7 breast): > 100 µM
- TGI (UACC-62 melanoma): > 100 µM
- TGI (TK-10 renal): > 100 µM
- TGI (NCI-H522 lung): > 100 µM
- TGI (A498 renal): > 100 µM
- TGI (LOX IMVI melanoma): > 100 µM
- TGI (MDA-MB-231 breast): > 100 µM
- TGI (SNB-19 CNS): > 100 µM
- TGI (ACHN renal): > 100 µM
- TGI (K-562 leukemia): > 100 µM

Structure (SMILES): COc1cc(N(C)C)ccc1/C=c1/c2ccccc2n2c1cc(-c1ccccc1)[n+]2C
- TGI (SF-295 CNS): 1.49 µM
- TGI (NCI-H460 lung): 1.23 µM
- TGI (BT-549 breast): 1.18 µM
- TGI (MDA-MB-435): 1.32 µM
- TGI (SF-539 CNS): 0.873 µM
- TGI (HL-60(TB) leukemia): 1.26 µM
- TGI (HCC-2998 colon): 1.76 µM
- TGI (SK-MEL-2 melanoma): 2.03 µM
- TGI (CCRF-CEM leukemia): 1.55 µM
- TGI (OVCAR-3 ovarian): 1.4 µM
- TGI (NCI-H226 lung): 2.11 µM
- TGI (CAKI-1 renal): 2.33 µM
- TGI (HOP-62 NSCLC): 1.03 µM
- TGI (A549 NSCLC): 1.38 µM
- TGI (SK-MEL-28 melanoma): 2.04 µM
- TGI (PC-3 prostate): 1.1 µM
- TGI (EKVX NSCLC): 2.21 µM
- TGI (MDA-N): 1.26 µM
- TGI (NCI/ADR-RES ovarian): > 100 µM
- TGI (M14 melanoma): 1.45 µM
- TGI (UACC-257 melanoma): 1.66 µM
- TGI (SW-620 colon): 2.02 µM
- TGI (DU-145 prostate): 1.26 µM
- TGI (RXF 393 renal): 1.37 µM
- TGI (OVCAR-4 ovarian): 2.02 µM
- TGI (COLO 205 colon): 0.37 µM
- TGI (KM12 colon): 0.418 µM
- TGI (786-0 renal): 1.22 µM
- TGI (SNB-75 CNS): 1.16 µM
- TGI (RPMI-8226 leukemia): 1.3 µM
- TGI (TK-10 renal): 1.83 µM
- TGI (SK-OV-3 ovarian): 1.44 µM
- TGI (A498 renal): 6.76 µM
- TGI (SNB-19 CNS): 1.58 µM
- TGI (ACHN renal): 1.31 µM
- TGI (K-562 leukemia): > 100 µM

Structure (SMILES): N/C(=N\OC(=O)NC(Cl)=C(Cl)Cl)c1cc(C(F)(F)F)cc(C(F)(F)F)c1
- TGI (SF-295 CNS): 34.8 µM
- TGI (HCT-116 colon): 35.5 µM
- TGI (HOP-92 NSCLC): 35.1 µM
- TGI (IGROV1 ovarian): 66 µM
- TGI (NCI-H460 lung): 36.8 µM
- TGI (BT-549 breast): 41.2 µM
- TGI (OVCAR-5 ovarian): 38.3 µM
- TGI (MDA-MB-435): 48.5 µM
- TGI (HT29 colon): 34.4 µM
- TGI (SF-539 CNS): 29.9 µM
- TGI (HL-60(TB) leukemia): 30 µM
- TGI (HCC-2998 colon): 25.8 µM
- TGI (CCRF-CEM leukemia): 32.2 µM
- TGI (OVCAR-3 ovarian): 28.6 µM
- TGI (NCI-H226 lung): 55.9 µM
- TGI (CAKI-1 renal): 33.8 µM
- TGI (HOP-62 NSCLC): 34.2 µM
- TGI (HCT-15 colon): 48.4 µM
- TGI (MALME-3M melanoma): 48.6 µM
- TGI (A549 NSCLC): 30.4 µM
- TGI (SK-MEL-28 melanoma): 32.8 µM
- TGI (PC-3 prostate): 38.9 µM
- TGI (EKVX NSCLC): 27 µM
- TGI (SK-MEL-5 melanoma): 89.6 µM
- TGI (MDA-N): 59.5 µM
- TGI (NCI/ADR-RES ovarian): 47.2 µM
- TGI (T-47D breast): 25.7 µM
- TGI (M14 melanoma): 70.4 µM
- TGI (UACC-257 melanoma): 31.1 µM
- TGI (SW-620 colon): 40.3 µM
- TGI (SN12C renal): 60.8 µM
- TGI (U251 CNS): 31.3 µM
- TGI (DU-145 prostate): 27 µM
- TGI (NCI-H23 lung): > 100 µM
- TGI (SF-268 CNS): 45.6 µM
- TGI (UO-31 renal): 33.9 µM
- TGI (MOLT-4 leukemia): 29.6 µM
- TGI (COLO 205 colon): 33.4 µM
- TGI (KM12 colon): 31.1 µM
- TGI (786-0 renal): 31.2 µM
- TGI (SR leukemia): 26.2 µM
- TGI (OVCAR-8 ovarian): 40.6 µM
- TGI (RPMI-8226 leukemia): 34.8 µM
- TGI (MCF7 breast): > 100 µM
- TGI (TK-10 renal): 30.4 µM
- TGI (SK-OV-3 ovarian): 84.4 µM
- TGI (A498 renal): 32.3 µM
- TGI (LOX IMVI melanoma): 31.8 µM
- TGI (MDA-MB-231 breast): 34.2 µM
- TGI (SNB-19 CNS): 50.5 µM
- TGI (ACHN renal): 27.4 µM

Structure (SMILES): C=C1c2nc3ccccc3n2C=C(c2ccc(Cl)cc2)N1c1ccccc1
- TGI (SF-295 CNS): 24 µM
- TGI (HCT-116 colon): 33.7 µM
- TGI (HOP-92 NSCLC): > 100 µM
- TGI (IGROV1 ovarian): 22.1 µM
- TGI (NCI-H460 lung): 24.9 µM
- TGI (BT-549 breast): 18.8 µM
- TGI (OVCAR-5 ovarian): > 100 µM
- TGI (MDA-MB-435): > 100 µM
- TGI (SF-539 CNS): 25.9 µM
- TGI (HL-60(TB) leukemia): > 100 µM
- TGI (HCC-2998 colon): 26 µM
- TGI (SK-MEL-2 melanoma): > 100 µM
- TGI (CCRF-CEM leukemia): > 100 µM
- TGI (OVCAR-3 ovarian): 38.5 µM
- TGI (NCI-H226 lung): 3.72 µM
- TGI (CAKI-1 renal): 39.4 µM
- TGI (HCT-15 colon): 24.5 µM
- TGI (MALME-3M melanoma): 27 µM
- TGI (A549 NSCLC): 27.1 µM
- TGI (SK-MEL-28 melanoma): 24 µM
- TGI (PC-3 prostate): > 100 µM
- TGI (EKVX NSCLC): 45.2 µM
- TGI (SK-MEL-5 melanoma): > 100 µM
- TGI (MDA-N): > 100 µM
- TGI (NCI/ADR-RES ovarian): 29.8 µM
- TGI (M14 melanoma): 36.4 µM
- TGI (UACC-257 melanoma): 63 µM
- TGI (SW-620 colon): > 100 µM
- TGI (SN12C renal): > 100 µM
- TGI (U251 CNS): 44.8 µM
- TGI (DU-145 prostate): > 100 µM
- TGI (NCI-H23 lung): 23.9 µM
- TGI (RXF 393 renal): 49.5 µM
- TGI (UO-31 renal): 32.9 µM
- TGI (OVCAR-4 ovarian): 29.9 µM
- TGI (MOLT-4 leukemia): > 100 µM
- TGI (COLO 205 colon): > 100 µM
- TGI (KM12 colon): 24.7 µM
- TGI (786-0 renal): 26 µM
- TGI (SR leukemia): > 100 µM
- TGI (SNB-75 CNS): 15.9 µM
- TGI (OVCAR-8 ovarian): 23.7 µM
- TGI (RPMI-8226 leukemia): > 100 µM
- TGI (MCF7 breast): 25.7 µM
- TGI (UACC-62 melanoma): 66.2 µM
- TGI (TK-10 renal): 24.8 µM
- TGI (SK-OV-3 ovarian): 34.7 µM
- TGI (NCI-H522 lung): 18.5 µM
- TGI (A498 renal): > 100 µM
- TGI (LOX IMVI melanoma): > 100 µM
- TGI (MDA-MB-231 breast): > 100 µM
- TGI (SNB-19 CNS): 19.6 µM
- TGI (ACHN renal): 24.8 µM
- TGI (K-562 leukemia): > 100 µM

Source: PubChem BioAssay (NCI)
